Experimental data published in ChEMBL document CHEMBL1133097, “N-Terminal dipeptides of D(-)-penicillamine as sequestration agents for acetaldehyde” (2000).

Assays:
[1] = Percent inhibition in hepatocyte culture system at 1/20 molar concentration of ethanol and lowered concentration of ethanol-derived AcH; type: functional, Rattus norvegicus
[2] = Percent inhibition in hepatocyte culture system in the presence of cyanamide at 1/20 molar concentration of ethanol and lowered concentration of ethanol-derived AcH; type: functional, Rattus norvegicus

Row | Compound | Inhibition [1] | Inhibition [2]
1 | C[C@H](NC(=O)[C@H](N)C(C)(C)S)C(=O)O.Cl | 84% | –
2 | CC(C)(NC(=O)[C@H](N)C(C)(C)S)C(=O)O.Cl | – | 37%
3 | CC(C)(S)[C@@H](N)C(=O)NCC(=O)O.Cl | 79% | 33%
